Test [1] deals with T1, Serine/threonine-protein kinase PLK4 (Homo sapiens) (UniProt O00444).
T1 sequence (whole entry): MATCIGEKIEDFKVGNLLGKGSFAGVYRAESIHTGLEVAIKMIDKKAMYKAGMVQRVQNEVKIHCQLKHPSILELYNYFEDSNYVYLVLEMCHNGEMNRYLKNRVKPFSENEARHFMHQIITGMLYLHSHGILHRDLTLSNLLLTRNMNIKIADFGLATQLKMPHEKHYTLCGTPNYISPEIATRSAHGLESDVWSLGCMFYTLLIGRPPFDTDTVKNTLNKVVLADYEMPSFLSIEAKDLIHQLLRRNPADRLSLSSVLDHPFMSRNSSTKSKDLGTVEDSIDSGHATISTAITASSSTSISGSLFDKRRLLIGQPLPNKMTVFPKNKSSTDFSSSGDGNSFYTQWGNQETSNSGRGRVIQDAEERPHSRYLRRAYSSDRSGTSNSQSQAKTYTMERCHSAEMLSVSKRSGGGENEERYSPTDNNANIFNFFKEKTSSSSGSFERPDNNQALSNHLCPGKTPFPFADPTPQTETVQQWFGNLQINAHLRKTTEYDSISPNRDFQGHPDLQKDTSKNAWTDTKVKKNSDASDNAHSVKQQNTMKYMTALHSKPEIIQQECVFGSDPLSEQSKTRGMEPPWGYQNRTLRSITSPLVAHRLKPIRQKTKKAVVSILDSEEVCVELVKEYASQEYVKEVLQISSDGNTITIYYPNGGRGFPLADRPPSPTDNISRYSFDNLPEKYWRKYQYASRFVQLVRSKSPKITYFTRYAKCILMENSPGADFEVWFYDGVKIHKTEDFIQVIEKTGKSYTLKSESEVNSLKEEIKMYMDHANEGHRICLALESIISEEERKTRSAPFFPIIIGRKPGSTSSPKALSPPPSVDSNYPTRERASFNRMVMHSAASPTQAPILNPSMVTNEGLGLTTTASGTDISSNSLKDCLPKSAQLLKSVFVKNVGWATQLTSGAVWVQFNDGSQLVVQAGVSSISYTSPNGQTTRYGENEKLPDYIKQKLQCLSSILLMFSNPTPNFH
Nature of the test: Selectivity interaction (LanthaScreen Eu Kinase Binding Assay) EUB0001632a PLK4. The conditions noted are these: at 10 µM.

Test [2] has as its system Receptor-type tyrosine-protein kinase FLT3 (Homo sapiens), P36888 [UNDEFINED MUTATION]. Nature of the test: Selectivity interaction (KinomeScan (DiscoverX)) EUB0000695a FLT3. The conditions noted are these: at 100 nM.
Test [3] addresses T2, Serine/threonine-protein kinase Nek2 (Homo sapiens) (UniProt P51955).
T2 sequence (whole entry): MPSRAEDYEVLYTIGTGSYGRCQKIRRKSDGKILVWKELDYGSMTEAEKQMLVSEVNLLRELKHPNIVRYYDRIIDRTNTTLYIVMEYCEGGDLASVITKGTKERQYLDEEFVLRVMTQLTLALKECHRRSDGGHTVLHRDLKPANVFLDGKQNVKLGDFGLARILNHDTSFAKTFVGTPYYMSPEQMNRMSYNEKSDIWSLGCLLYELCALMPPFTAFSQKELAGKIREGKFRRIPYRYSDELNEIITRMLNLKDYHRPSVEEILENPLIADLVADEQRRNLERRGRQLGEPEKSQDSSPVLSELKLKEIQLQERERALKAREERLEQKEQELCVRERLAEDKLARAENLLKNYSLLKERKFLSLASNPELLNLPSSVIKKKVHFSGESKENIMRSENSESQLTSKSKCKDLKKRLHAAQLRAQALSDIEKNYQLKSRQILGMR
Nature of the test: Selectivity interaction (KinomeScan (DiscoverX)) EUB0000666a NEK2. The conditions noted are these: at 10 µM.

The target in test [4] is T3, Homeodomain-interacting protein kinase 4 (Homo sapiens) (UniProt Q8NE63).
T3 sequence (whole entry): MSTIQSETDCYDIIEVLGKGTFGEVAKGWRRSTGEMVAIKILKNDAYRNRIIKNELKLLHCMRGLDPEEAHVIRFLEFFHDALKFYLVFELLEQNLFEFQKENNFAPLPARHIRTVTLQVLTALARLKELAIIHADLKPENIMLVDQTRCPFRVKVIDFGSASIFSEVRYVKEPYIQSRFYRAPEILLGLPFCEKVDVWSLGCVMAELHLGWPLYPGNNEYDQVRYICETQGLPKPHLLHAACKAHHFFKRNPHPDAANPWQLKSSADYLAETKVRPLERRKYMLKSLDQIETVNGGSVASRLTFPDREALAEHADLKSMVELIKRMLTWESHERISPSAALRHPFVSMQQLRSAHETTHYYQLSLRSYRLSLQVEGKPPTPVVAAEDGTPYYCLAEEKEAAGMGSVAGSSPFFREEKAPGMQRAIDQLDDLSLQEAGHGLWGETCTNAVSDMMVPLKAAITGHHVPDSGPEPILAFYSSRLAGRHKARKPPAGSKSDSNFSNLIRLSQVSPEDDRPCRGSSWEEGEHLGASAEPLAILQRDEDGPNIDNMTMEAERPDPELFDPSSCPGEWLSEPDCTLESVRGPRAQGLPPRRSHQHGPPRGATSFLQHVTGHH
The experiment in a line: Selectivity interaction (SelectScreen profiling (Invitrogen)) EUB0000607a HIPK4. The conditions noted are these: at 2 µM.

The target of test [5] is T4, Dual specificity protein kinase TTK (Homo sapiens) (UniProt P33981).
T4 sequence (whole entry): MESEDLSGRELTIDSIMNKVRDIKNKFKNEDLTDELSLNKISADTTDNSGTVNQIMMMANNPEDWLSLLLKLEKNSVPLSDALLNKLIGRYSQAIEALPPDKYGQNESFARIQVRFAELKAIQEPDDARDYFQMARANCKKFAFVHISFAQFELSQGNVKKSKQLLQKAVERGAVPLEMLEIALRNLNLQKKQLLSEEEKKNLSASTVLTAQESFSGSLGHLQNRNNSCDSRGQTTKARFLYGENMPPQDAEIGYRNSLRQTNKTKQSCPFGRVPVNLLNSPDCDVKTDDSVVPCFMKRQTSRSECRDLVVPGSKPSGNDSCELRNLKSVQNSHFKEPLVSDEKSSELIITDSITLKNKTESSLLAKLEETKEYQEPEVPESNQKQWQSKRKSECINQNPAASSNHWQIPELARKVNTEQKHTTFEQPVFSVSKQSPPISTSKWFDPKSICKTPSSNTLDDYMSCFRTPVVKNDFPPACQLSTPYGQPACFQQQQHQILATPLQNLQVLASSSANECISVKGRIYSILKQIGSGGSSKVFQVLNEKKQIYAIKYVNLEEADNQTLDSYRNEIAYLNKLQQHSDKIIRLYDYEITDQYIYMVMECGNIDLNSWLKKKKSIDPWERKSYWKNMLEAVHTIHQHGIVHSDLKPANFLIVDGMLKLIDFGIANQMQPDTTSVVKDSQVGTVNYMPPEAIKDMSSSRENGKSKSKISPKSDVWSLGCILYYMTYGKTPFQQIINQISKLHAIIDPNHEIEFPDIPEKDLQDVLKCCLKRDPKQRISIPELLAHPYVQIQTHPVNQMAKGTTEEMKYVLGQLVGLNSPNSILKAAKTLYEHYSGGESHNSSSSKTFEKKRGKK
Nature of the test: Selectivity interaction (Kinase panel (Invitrogen)) EUB0000639a TTK. The conditions noted are these: at 200 nM.

Chain of Receptor-type tyrosine-protein kinase FLT3 (Homo sapiens), P36888 [UNDEFINED MUTATION] (P36888 whole entry, looked up, change not shown): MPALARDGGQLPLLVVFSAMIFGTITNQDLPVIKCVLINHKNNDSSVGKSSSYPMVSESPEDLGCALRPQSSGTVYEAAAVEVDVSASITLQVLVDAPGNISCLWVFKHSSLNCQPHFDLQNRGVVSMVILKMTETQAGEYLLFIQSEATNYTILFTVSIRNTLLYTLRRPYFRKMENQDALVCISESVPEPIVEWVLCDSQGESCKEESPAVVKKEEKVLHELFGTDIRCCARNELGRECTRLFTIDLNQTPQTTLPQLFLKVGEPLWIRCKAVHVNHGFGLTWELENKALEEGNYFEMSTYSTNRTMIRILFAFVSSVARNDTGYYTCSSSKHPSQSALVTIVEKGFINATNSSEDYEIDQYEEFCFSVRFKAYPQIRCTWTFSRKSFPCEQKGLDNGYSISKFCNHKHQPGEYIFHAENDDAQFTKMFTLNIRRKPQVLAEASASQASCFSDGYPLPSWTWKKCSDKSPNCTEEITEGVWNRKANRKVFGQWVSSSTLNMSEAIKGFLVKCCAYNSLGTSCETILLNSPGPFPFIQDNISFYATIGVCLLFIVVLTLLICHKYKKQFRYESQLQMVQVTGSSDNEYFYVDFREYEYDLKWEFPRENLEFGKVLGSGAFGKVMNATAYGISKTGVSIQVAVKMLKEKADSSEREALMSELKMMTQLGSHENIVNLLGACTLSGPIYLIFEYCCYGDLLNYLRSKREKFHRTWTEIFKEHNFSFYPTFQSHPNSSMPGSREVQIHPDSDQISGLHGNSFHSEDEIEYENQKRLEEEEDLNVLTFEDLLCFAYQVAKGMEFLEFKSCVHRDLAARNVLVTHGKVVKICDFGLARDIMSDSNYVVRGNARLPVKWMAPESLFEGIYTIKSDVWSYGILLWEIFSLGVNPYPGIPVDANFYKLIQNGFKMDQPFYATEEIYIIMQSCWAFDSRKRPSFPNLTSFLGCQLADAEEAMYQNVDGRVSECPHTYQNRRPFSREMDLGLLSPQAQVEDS

In test [1], `Cn1cc(-n2cnc3c(NCc4nc5cc(Cl)c(Cl)cc5[nH]4)nc(N4CCOCC4)nc32)cn1` gave a % of inhibition of 0.376%.

Regarding `Cc1cc(F)c(C(=O)Nc2cccc(-c3nncn3C(C)C)n2)cc1-n1cnc(C2CC2)c1`, in test [2], the % of control came to 100%. For `O=C(NOC[C@H](O)CO)c1ccc(F)c(F)c1Nc1ccc(I)cc1F`, in test [3], the % of control was 70%. On to `CNC(=O)Nc1ccc(-c2nc(N3CC4CCC(C3)O4)c3cnn(C4CCC5(CC4)OCCO5)c3n2)cc1`, for which the % of inhibition in test [4] was determined as 7%. Regarding `CC[C@@H]1[C@H](F)C(=O)N[C@@H]1COc1nccc2cc(C(N)=O)c(OC)cc12` [ZIMLOVISERTIB], in test [5], the % of inhibition turned out to be 8.59%.

For the origin of these results see ChEMBL document CHEMBL5465560, “Selectivity Literature for EUbOPEN Chemogenomic Library” (2024).
